{"source": "patent US20060105023A1", "about": "“Treatment of neurological disorders with nicotine” (priority 2001, published 2006)", "key": {"[1]": {"settings": "within six hours, at a half life of about 60 minutes", "description": "It should be kept in mind that nicotine is a toxic compound. Therefore, only the minimum amount required for relief from smoking addiction or migraine symptoms should be used. […] Fortunately, nicotine is metabolized fairly rapidly."}, "adult": {"system": "adult", "settings": "absorbed in one dose; cited from earlier work"}, "[2]": {"settings": "people with average metabolic capacity for the compound; cited from earlier work"}}, "data": [{"smiles": "CN1CCCC1c1cccnc1", "note": "(stereo not drawn) [nicotine]", "values": [{"measurement": "amount remaining of one mg of nicotine absorbed in the body", "setting": "[1]", "value": "about 0.031 mg"}, {"measurement": "lethal dose", "setting": "adult", "value": "Sixty"}, {"measurement": "half life", "setting": "[2]", "value": "about 60 minutes"}]}]}
